Legend:
[1] = test system: chondrocytes; assay: EdU DNA proliferation assay; assay type: cell-based, rat; settings: 10 and 20 µmol/L, 24 and 48 hours
Procedure: Chondrocyte proliferation was quantified using an ethynyl deoxyuridine (EdU) DNA in vitro proliferation detection kit (Guangzhou RiboBio) using flow cytometry, in accordance with the manufacturer's instructions.14 Images of cells were captured by light with microscopy using Image‐Pro Plus 6.0 software (Media Cybernetics). The number of EdU‐labelled cells was calculated from fields randomly selected in each well. Numbers of cells in each phase of the cell cycle were calculated using a BD FACS Calibur Flow Cytometer at a 488 nm excitation wavelength.

[2] = test system: Ki67, p‐ERK and p‐Akt; assay: Immunofluorescent staining of Ki67, p-Akt, p-ERK at the defect site; assay type: in vivo, Sprague‐Dawley (SD) rats; settings: 1 and 2 weeks post-injury
Procedure: Animal experiments were conducted in accordance with protocols approved by the Chongqing University Animal Care and Use Committee. For the cartilage injury model, a 0.5‐mm‐deep thickness defect was created through the articular cartilage and subchondral bone of the patellar groove of Sprague‐Dawley (SD) rats (200‐250 g) using a micro‐electrical drill. Matrigel mixed with bakuchiol (100 µmol/L) was implanted locally to fill the cartilage defect. Articular cartilage samples were harvested after 1 and 2 weeks post‐implantation for macroscopic and histological evaluation, with analysis by micro‐CT. The harvested samples were embedded in paraffin, sectioned for 10 μm thickness and then stained with haematoxylin and eosin (H&E), Safranin‐O green and Alcian blue. The sections were scored histologically in accordance with previous studies.9, 17, 18 The relative area of each defect (Figure 6: area within the dashed line) in the different groups was measured using Image J. The relative content of cartilage matrix was ascertained from the degree of Safranin staining (Red area) and GAG content by Alcian blue staining (Positive blue area). All morphological measurements were performed using Image J. The mean histological scores for each group were statistically analysed, with t tests performed between the BAK‐treated group and control. […]

[3] = test system: estrogen receptor; set-up: method as in earlier work; settings: ref 11 (Lim et al); cited from earlier work
[4] = test system: CDK1; assay: qRT-PCR gene expression of CDK1; assay type: cell-based, rat; settings: 10 µmol/L, 48 hours
Text: (§1) Cells were harvested using Trizol reagent (Invitrogen), followed by RNA isolation. Each sample was reverse transcribed to cDNA using a RevertAid First Strand cDNA Synthesis Kit (Thermo Fisher Scientific). The reverse transcription product was then used as a template to perform real‐time polymerase chain reaction (PCR) on a StepOne Plus thermal cycler (Applied Biosystems) using PowerUp™ SYBR™ Green Master Mix (Applied Biosystems), following the manufacturer's guidelines. The primers for CDK1 (F: 5′‐[…]‐3′; R: 5′‐[…]‐3′), E2F1 (F: 5′‐[…]‐3′; 5′‐[…]‐3′), MKI67 (F: 5′‐[…]‐3′; R: 5′‐[…]‐3′) were synthesized by Invitrogen. The final data were analysed by the 2^−ΔΔ ^C ^t method.

[5] = test system: CDK1; assay: Western blotting for CDK1 protein; assay type: cell-based, rat; settings: for CDK1 protein levels in chondrocytes: inhibitor 1 µmol/L added to 10 µmol/L BAK
Procedure: (§2) Western blotting analysis was performed as described previously. After separation using SDS‐PAGE then transfer to PVDF membranes, the target proteins were detected after incubating with primary antibodies for CDK1 (Abcam: ab18, 1:1000), E2F1 (Abcam: ab179445, 1:1000), phosphorylated Akt (CST: 9271, 1:1000), Akt (CST: 9272, 1:1000), phosphorylated ERK1/2 (Abcam: ab201015, 1:1000), ERK1/2 (Abcam: ab36991, 1:1000) and ERα (Santa Cruz: sc‐8005, 1:200). The membranes were then incubated with the corresponding secondary antibody at 37°C for 1 hour Finally, the immunoreactive bands were developed using SuperSignal West Femto Maximum sensitivity substrate (Thermo Fisher Scientific), and the images analysed using Quantity One Software (Bio‐Rad). The PI3K‐Akt and ERK signalling pathways were involved in the regulation of cell proliferation by BAK. Two methods of analysis were conducted to verify this. Firstly, the cells were treated with BAK or BAK plus the Akt or ERK inhibitors PI‐103 and SCH772984, respectively. Following culture of the cells, Western blotting was used to ascertain if Akt or ERK1/2 were phosphorylated and to verify the association between BAK and the activation of the Akt and ERK1/2 pathways. Secondly, ERα siRNA (ERα si‐R) was used to knockdown estrogen receptor in the target cells, which were then further cultured for 48 hours with BAK. Meanwhile, the non‐treatment group was used as the control. Finally, the protein expression levels of CDK1 and phosphorylated and total Akt (p/t‐Akt) were detected using Western blotting so as to confirm the involvement of the ERα/PI3K‐Akt/ERK axis signalling pathways in cell proliferation by BAK stimulation.

[6] = test system: knee articular cartilage defect; assay: Rat knee articular cartilage defect model, histological evaluation; assay type: in vivo, Sprague‐Dawley (SD) rats; settings: Matrigel with bakuchiol 100 µmol/L implanted locally
Procedure: Animal experiments were conducted in accordance with protocols approved by the Chongqing University Animal Care and Use Committee. For the cartilage injury model, a 0.5‐mm‐deep thickness defect was created through the articular cartilage and subchondral bone of the patellar groove of Sprague‐Dawley (SD) rats (200‐250 g) using a micro‐electrical drill. Matrigel mixed with bakuchiol (100 µmol/L) was implanted locally to fill the cartilage defect. Articular cartilage samples were harvested after 1 and 2 weeks post‐implantation for macroscopic and histological evaluation, with analysis by micro‐CT. The harvested samples were embedded in paraffin, sectioned for 10 μm thickness and then stained with haematoxylin and eosin (H&E), Safranin‐O green and Alcian blue. The sections were scored histologically in accordance with previous studies.9, 17, 18 The relative area of each defect (Figure 6: area within the dashed line) in the different groups was measured using Image J. The relative content of cartilage matrix was ascertained from the degree of Safranin staining (Red area) and GAG content by Alcian blue staining (Positive blue area). All morphological measurements were performed using Image J. The mean histological scores for each group were statistically analysed, with t tests performed between the BAK‐treated group and control. In addition, the histological immunofluorescent staining for Ki67, p‐Akt, and p‐ERK was performed to verify the in vivo mechanisms of BAK on cell proliferation.

[7] = test system: E2F1; assay: qRT-PCR gene expression of E2F1; assay type: cell-based, rat; settings: 10 µmol/L, 48 hours
Text: as §1

[8] = test system: E2F1; assay: Western blotting for E2F1 protein; assay type: cell-based, rat; settings: BAK 1 to 10 µmol/L for 3 d
Procedure: Western blotting analysis was performed as described previously. After separation using SDS‐PAGE then transfer to PVDF membranes, the target proteins were detected after incubating with primary antibodies for CDK1 (Abcam: ab18, 1:1000), E2F1 (Abcam: ab179445, 1:1000), phosphorylated Akt (CST: 9271, 1:1000), Akt (CST: 9272, 1:1000), phosphorylated ERK1/2 (Abcam: ab201015, 1:1000), ERK1/2 (Abcam: ab36991, 1:1000) and ERα (Santa Cruz: sc‐8005, 1:200). The membranes were then incubated with the corresponding secondary antibody at 37°C for 1 hour Finally, the immunoreactive bands were developed using SuperSignal West Femto Maximum sensitivity substrate (Thermo Fisher Scientific), and the images analysed using Quantity One Software (Bio‐Rad).

[9] = test system: MKI67; assay: qRT-PCR gene expression of MKI67; assay type: cell-based, rat; settings: 10 µmol/L, 48 hours
Text: as §1

[10] = test system: rat chondrocytes; assay: CCK8 cell viability / cytotoxicity assay; assay type: cell-based
Procedure: Rat chondrocytes were isolated using a method adapted from a previous study.9 Briefly, articular cartilage was retrieved from the knees of healthy Sprague-Dawley rats (male, n = 5, weight: 150 g). The cartilage was minced, and pieces digested with 2 mg/mL of collagenase type II (Gibco) for 2 hours. After removal of undigested tissue, the cells were cultured in DMEM/F12 (1:1) supplemented with 10% FBS. Passage 2-3 (P2-3) cells were used in the experimental studies. The bakuchiol was purchased from Selleck ([…]). Animal experiment protocol was reviewed and approved by the Institutional Review Board (IRB) of Chongqing University. Cell viability in response to BAK was evaluated using a cell counting kit-8 (CCK8) assay which was also utilized to assess cell viability. Cells were seeded at a density of 1 × 10^4 cells/well in a 24-well plate and the cytotoxicity of BAK tested using concentrations of 1 to 100 μmol/L for 3 days. The cells were then treated with 10 μmol/L BAK for 7 days. The cells were then washed with PBS and incubated in serum-free medium containing 10% CCK8 reagent for 2-3 hours at 37°C in an atmosphere containing 5% CO2. Aliquots were pipetted into a 96-well plate and absorbance at 490 nm measured using a plate reader (Bio-Rad).

[11] = test system: MKI67; assay: Immunofluorescent staining of MKI67 in chondrocytes; assay type: cell-based, rat; settings: 10 µmol/L, relative to control
[12] = test system: ERK1/2; assay: Western blotting for phosphorylated/total ERK1/2; assay type: cell-based, rat
Procedure: as §2, with “Following culture of the cells, Western blotting was used to ascertain if Akt or ERK1/2 were phosphorylated and to verify the association between BAK and the activation of the Akt and ERK1/2 pathways. Secondly, ERα siRNA (ERα si‐R) was used to knockdown estrogen receptor in the target cells, which were then further cultured for 48 hours with BAK. Meanwhile, the non‐treatment group was used as the control.” left out

[13] = test system: Akt; assay: Western blotting for phosphorylated/total Akt; assay type: cell-based, rat
Procedure: as §2, with “Following culture of the cells, Western blotting was used to ascertain if Akt or ERK1/2 were phosphorylated and to verify the association between BAK and the activation of the Akt and ERK1/2 pathways. Secondly, ERα siRNA (ERα si‐R) was used to knockdown estrogen receptor in the target cells, which were then further cultured for 48 hours with BAK. Meanwhile, the non‐treatment group was used as the control.” left out

SMILES: C=C[C@@](C)(/C=C/c1ccc(O)cc1)CCC=C(C)C [BAK, bakuchiol]
- cell proliferation (EdU staining) [1]: significantly promoted cell proliferation
- expression of Ki67, p-ERK and p-Akt in vivo [2]: promoted the expression
- estrogen receptor-binding affinity [3]: high estrogen receptor‐binding affinity
- mRNA level of CDK1 [4]: significantly up‐regulated
- CDK1 protein synthesis ([5]; 10 µmol/L BAK, Figure 4): significantly stimulated CDK1 protein synthesis
- CDK1 protein synthesis ([5]; BAK 1 to 10 µmol/L for 3 d): stimulated CDK1 protein synthesis
- histological score of the defects ([6]; 1 week): 3.60 ± 0.54
- histological score of the defects ([6]; 2 weeks): 5.40 ± 0.55
- content of GAG vs control ([6]; Alcian blue): clearly different
- mRNA level of E2F1 [7]: significantly up‐regulated
- E2F1 protein (translation level) [8]: up‐regulated E2F1 at the translation level
- mRNA level of MKI67 [9]: significantly up‐regulated
- cell viability vs control ([10]; 10 µmol/L, 7 days of culture): promoted cell viability
- toxicity in the cells ([10]; 100 µmol/L): clear toxicity
- cytotoxic effects on chondrocytes ([10]; 1 to 100 µmol/L, after 24 hours): no cytotoxic effects
- proliferation of chondrocytes vs control ([10]; 5, 10 and 20 µmol/L, control 0.1% DMSO): increased proliferation significantly
- EC50 ([10]; Rattus norvegicus, Chondrocyte, CCK8, chondrocytes, 24 h, Figure 1A, read-out: EC50 of BAK): 8.9 µM
- IC50 ([10]; Rattus norvegicus, Chondrocyte, CCK8, chondrocytes, Figure S1, read-out: IC50 (toxicity in the cells)): 48.5 µM
- BAK concentration in the medium with significant cytotoxicity ([10]; chondrocytes): > 20 µmol/L
- MKI67 protein synthesis (immunofluorescent staining) [11]: clearly promoted MKI67 protein synthesis
- ratio of phosphorylated/total ERK1/2 (p/t-ERK1/2) ([12]; 10 µmol/L BAK): improved the ratios
- ratio of phosphorylated/total Akt (p/t-Akt) ([13]; 10 µmol/L BAK): improved the ratios

SMILES: Oc1cccc(-c2nc(N3CCOCC3)c3oc4ncccc4c3n2)c1 [PI‐103]
- CDK1 protein levels in chondrocytes [5]: reduced
- p/t-Akt ratio in chondrocytes ([13]; 1 µmol/L PI-103 added to 10 µmol/L BAK): reduced

SMILES: O=C(Nc1ccc2[nH]nc(-c3ccncc3)c2c1)[C@@H]1CCN(CC(=O)N2CCN(c3ccc(-c4ncccn4)cc3)CC2)C1 [SCH772984]
- CDK1 protein levels in chondrocytes [5]: reduced
- p/t-ERK1/2 ratio in chondrocytes ([12]; 1 µmol/L SCH772984 added to 10 µmol/L BAK): reduced
